Patent US7612255B2, “Transgenic plants for mitigating introgression of genetically engineered genetic traits” (priority 1999, dated 2009)

Key:
red rice = conditions: fields of transgenic rice bearing the bar gene (Oard et al. 2000); cited from earlier work
[1] = test system: non-transformed tobacco plants; experiment: Seed germination in the presence of kanamycin or imazapyr (tobacco); format: in vivo, Nicotiana tabacum; conditions: tobacco seeds on Nitsch agar medium; sensitive seedlings stop growing within 10 days
Protocol: Surface sterilized seeds of wild type, the backcross of primary transformants with wild type T0 (=BC), T1, T2, and T3 tobacco plants were planted on either medium. Sensitive seedlings were identified as those that stopped growing within 10 days, forming only short roots and cotyledons, while resistant seedlings grew well, forming long roots and true leaves, continuing their growth past 10 days. The segregation ratio of wild type to TM of each line was calculated. Resistant/dwarfed seedlings were grown to maturity in soil and the plants were analyzed for AHAS resistance (phenotype) and for ahas^R and Δgai insert by PCR (genotype), as described herein above.
Competition of TM transgenics with the wild type, and self competition of each alone: The transgenic TM tobacco was used to simulate a TM introgressed hybrid or transgenic volunteer crop, and the wild type tobacco was used to simulate a non-transgenic crop, weed, or wild plant. The competitive interactions between the transgenic and wild type plants were assessed in two separate internally replicated greenhouse experiments. In both experiments, seeds obtained from the first backcross T1 (═BC1) of a representative TM line T1-7 (pollen recipient) and wild type (pollen donor) were used to grow mixed TM and wild type cultures. […]

non-transgenic B. napus = experiment: Rooting of regenerated plantlets in the presence of kanamycin; format: in vivo, Brassica napus; conditions: root formation of regenerated B. napus plantlets
Excerpt: Transformation of oilseed rape (B. napus cv. Westar): The Agrobacterium tumefaciens-mediated transformation protocol of Moloney, et al (Plant Cell Reports 1989; 8,238-242) using excised cotyledonary petioles of B. napus cv. Westar seedlings was followed with some modifications. Excised cotyledons of axenic B. napus cv. Westar seedlings were inoculated by dipping the cut end of a 2 mm petiole in a suspension of A. tumefaciens strain EHA105 or EHA 101 containing the same TM 1 construct described in detail in Example 1. Non-transformed cotyledons served as negative controls. After co-cultivation for 2.5 days, the cotyledons were regenerated on Murashige-Skoog (MS) medium containing 500 mg/L carbenicillin to kill A. tumefaciens and 20 mg/L kanamycin as the primary plant selectable marker. Some healthy calli developed on the cut petioles and regenerated into green shoots which were then sub-cultured onto shoot elongation medium containing 300 mg/L carbenicillin and either 20 mg/L kanamycin or 0.2 μM imazapyr herbicide as secondary selectable marker of the putative transformants. The shoots were then rooted, potted, and transferred to the greenhouse to grow flower and set seed. The putative transformants were tested by PCR (FIG. 5) and by AHAS enzymatic assay (as described in Example 1 herein above) (FIG. 6) to confirm TM transformation. […]

[2] = test system: non-transformed B. napus plants; experiment: Seed germination in the presence of kanamycin or imazapyr (oilseed rape); format: in vivo, Brassica napus; conditions: B. napus seeds on Nitsch agar medium
Protocol: Seed germination in the presence of kanamycin or imazapyr: A discriminatory dose level of Nitsch (Nitsch, Nicotiana. Phytomorphology 1969; 19, 389-404) agar medium containing 150 mg/L kanamycin or 0.3 μM imazapyr inhibiting the growth of non-transformed plants was determined. Surface sterilized seeds of non-transgenic, and TM B. napus plants were planted on either medium. Sensitive seedlings stopped growing within 10 days forming only short roots and cotyledons, while resistant seedlings formed long roots and true leaves and continued their growth. The segregation ratio of non-transgenic to TM of each line was calculated. Resistant/dwarfed seedlings were grown to maturity in soil and the plants were analyzed for AHAS resistance and for ahas^R and Δgai insert by PCR, as described above.
Competition of TM transgenic vs. non-transgenic Brassica napus plants and self competition of each alone: The competitive interactions between the TM transgenic vs. non-transgenic Brassica napus plants were assessed in replicated greenhouse experiments. In the first experiment seeds obtained from the selfed homozygous TM lines T1-J9-4 and -6 were used to grow the TM plants in mixed cultures with the non-transgenic plants in a 1:1 TM/WT ratio. […]

[3] = test system: Δgai-transformed male sterile tobacco plants; format: in vivo, Nicotiana tabacum; conditions: kinetin foliar spray; normal fertilization and seed development
Excerpt: Seed production on Δgai male sterile plants: The Δgai effect on pollen production is not irreversible: treatment of plants with cytokinins results in plants producing fertile pollen, and capable of self fertilization. Hemizygous imazapyr resistant and semi-dwarf primary TM tobacco transformants (lines 7, 8, and 10) were transferred to soil and grown to flowering. […] The chemicals were in an aqueous solution containing 0.1% (v/v) Tween 20 surfactant. The control group received the surfactant solution only, or none at all. All applications were made through foliar spray every other day for 2 weeks. Female fertility was assessed by backcrossing wild type pollen donors were backcrossed to one plant from each line without kinetin application (FIG. 4). At maturity, the capsules formed on each plant were counted and the dry weight of seed set of up to 5 capsules per each plant was measured. Normal seed set was observed.
Anthers were collected from three flowers per plant. A minimum of three plants per biotype were analyzed. Pollen viability was scored by staining the pollen with cotton blue stain [Phillips, R. L. in G. Clark, ed. […]
Floral bud and pistil development of the TM transgenic plants were similar to that of wild type plants. […] Pollen viability, scored by staining tests, of these restored lines was >93% compared to approximately 0% of non-treated plants (FIG. 4). […]

CP(=O)(O)CCC(N)C(=O)O (stereo not drawn) [glufosinate]
Control of red rice (red rice): easily controlled

CC(C)C1(C)N=C(c2ncccc2C(=O)O)NC1=O (stereo not drawn) [imazapyr]
Discriminatory dose level inhibiting the growth of non-transformed plants [1]: 0.3 µM

NC[C@H]1O[C@H](O[C@H]2[C@H](O)[C@@H](O[C@H]3O[C@H](CO)[C@@H](O)[C@H](N)[C@H]3O)[C@H](N)C[C@@H]2N)[C@H](O)[C@@H](O)[C@@H]1O [kanamycin]
Discriminatory dose level inhibiting the growth of non-transformed plants [1]: 85.8 µM | Kanamycin concentration which inhibits the non-transgenics (non-transgenic B. napus): 20 mg/L | Discriminatory dose level inhibiting the growth of non-transformed plants [2]: 150 mg/L

c1coc(CNc2ncnc3[nH]cnc23)c1 [kinetin]
Restoration of fertility of male sterile TM transgenic plants [3]: restored the fertility
